Measured values from patent publication US20220280457A1, “ORAL PHARMACEUTICAL IMMEDIATE RELEASE COMPOSITION AND METHOD OF TREATMENT FOR WEIGHT LOSS” (AARDVARK THERAPEUTICS INC., priority 2019, published 2022).

Experiments:
[1] = tested on: male SD rats; test: Single oral dose, 24-hour cumulative food intake study in rats (Example 6, first in vivo study); parameters: species or system rat; settings: for Cumulative food intake as compared with vehicle: all indicated time intervals, DA 23.1 mg/kg, DB 26.8 mg/kg
Method: This example compares efficacy of DA versus DB in food inhibition and body weight control. As a background, according to Avau et al., Sci. Rep. […] In our first in vivo study, 45 male SD rats (purchased from Envigo at 8-10 weeks of age) were divided into three groups (15 in each group), which were administered a single oral dose of vehicle (distilled water), 26.8 mg/kg of DB, or 23.1 mg/kg of DA respectively, with a 24-hour observational period, to compare the efficacy of DB versus DA in reducing food intake.

[2] = tested on: male C57BL/6N DIO mice; test: 56-day BID treatment of DIO mice: food consumption and body weight (Example 6, second in vivo study); parameters: species or system mouse; settings: for Body weight gain as compared to vehicle treatment: high-fat diet, oral BID 56 days
Method: In a second in vivo study, 45 male C57BL/6N DIO mice (purchased from Envigo at 18 weeks of age, fed with high-fat diet) were divided into three groups (15 in each group), which were orally administered vehicle (distilled water), 26.8 mg/kg of DB, or 23.1 mg/kg of DA respectively, twice daily (BID), with a 56-day treatment period to compare the efficacy of DB versus DA in food intake reduction and body weight control. Briefly, once weekly, the food weight for each cage was recorded at 0 hour and then 24 hours later, permitting calculation of food consumption for that 24-hour interval. In addition, starting from Day 0, the mice were weighed three times weekly (every 2-3 days).
The mean food consumption per animal for 24-hour intervals at indicated measurement days during the treatment period are shown in Table.
The mean absolute body weight change (in grams) and normalized body weight change (% of baseline) during 56-day treatment period of the three treatment groups are presented in […]. and Table 6.

[3] = tested on: C57BL/6NTad mice, diet-induced obesity (DIO) mouse model; test: 56-day diet-induced obesity (DIO) mouse weight loss study, DA versus DB (Example 3); type: in vivo; settings: DA 23.1 mg/kg BID PO
Source text: The 56-day study determined the behavioral effects of bitter taste receptor agonists denatonium acetate (DA) compared to denatonium benzoate (DB) in a diet-induced obesity (DIO) mouse model. […] The study duration was a 3-5 day acclimation period +28 day study period and 2-3 day testing period after study. […] The mice were C57BL/6NTad mice at least 12 weeks in age and 15 mice per group (low dose DA, higher dose DA, high dose DB and control). […] Metabolic biomarkers (blood glucose, blood insulin, blood HbA1c) were measured at the beginning and end of the study. The DA, DB or distilled water control was administered per ostium gavage (PO) at a volume of 5 mL/kg body weight.

[4] = tested on: rodent obesity models; settings: benzoate salt of denatonium; cited from earlier work
[5] = tested on: healthy volunteers; settings: cited from earlier work
[6] = oral BID, DA 23.1 mg/kg or DB 26.8 mg/kg

## CC(=O)[O-].CC[N+](CC)(CC(=O)Nc1c(C)cccc1C)Cc1ccccc1 [DA, Denatonium acetate]
[1]; 23.1 mg/kg DA (57.4 μmol/kg) vs 26.8 mg/kg DB (60 μmol/kg)
  Food intake reduction, DA versus DB: a greater food intake reduction
[1]
  Cumulative food intake as compared with vehicle: reduced cumulative food intake
[2]; Day 34 to Day 56, 23.1 mg/kg DA vs 26.8 mg/kg DB
  Body weight gain, DA versus DB: body weight gain was less
[2]; all indicated measurement days except for Day 42, 23.1 mg/kg DA vs 26.8 mg/kg DB
  Food consumption, DA versus DB: food consumption was less
[2]; DA 23.1 mg/kg, DB 26.8 mg/kg
  Body weight gain as compared to vehicle treatment: less body weight gain
[2]; oral BID, 56 days, DA 23.1 mg/kg, DB 26.8 mg/kg
  Food consumption compared to vehicle-dosed mice: nominally decreased food consumption
[2]; [6]
  Mean normalized body weight (% of baseline) on study day 0: 100.0 % of baseline
  Mean normalized body weight (% of baseline) on study day 25: 100.0 % of baseline
  Mean normalized body weight (% of baseline) on study day 28: 100.0 % of baseline
  Mean normalized body weight (% of baseline) on study day 30: 100.0 % of baseline
[3]; 56 days
  Average body weights at the indicated days (FIG. 1): lowest average body weights
[3]; versus pre-treatment baseline and vehicle
  Serum insulin at the end of the 56 day study (FIG. 3): close to baseline value (i.e., pre-treatment) and noticeably lower compared to the vehicle-treated group

## CC[N+](CC)(CC(=O)Nc1c(C)cccc1C)Cc1ccccc1.O=C([O-])c1ccccc1 [DB, benzyl-[2-(2,6-dimethylanilino)-2-oxoethyl]-diethylazanium benzoate]
[1]
  Cumulative food intake as compared with vehicle: reduced cumulative food intake
[2]; DA 23.1 mg/kg, DB 26.8 mg/kg
  Body weight gain as compared to vehicle treatment: less body weight gain
[2]; [6]
  Mean normalized body weight (% of baseline) on study day 0: 100.0 % of baseline
  Mean normalized body weight (% of baseline) on study day 25: 100.3 % of baseline
  Mean normalized body weight (% of baseline) on study day 28: 100.2 % of baseline
  Mean normalized body weight (% of baseline) on study day 30: 100.5 % of baseline
[2]; oral BID, DA 23.1 mg/kg or DB 26.8 mg/kg, day 4
  Mean normalized body weight (% of baseline) on study day 4: 100.5 % of baseline
[2]; oral BID, DA 23.1 mg/kg or DB 26.8 mg/kg, day 7
  Mean normalized body weight (% of baseline) on study day 7: 99.7 % of baseline
[2]; oral BID, DA 23.1 mg/kg or DB 26.8 mg/kg, day 9
  Mean normalized body weight (% of baseline) on study day 9: 99.4 % of baseline
[2]; oral BID, DA 23.1 mg/kg or DB 26.8 mg/kg, day 11
  Mean normalized body weight (% of baseline) on study day 11: 99.0 % of baseline
[2]; oral BID, DA 23.1 mg/kg or DB 26.8 mg/kg, day 14
  Mean normalized body weight (% of baseline) on study day 14: 99.3 % of baseline
[2]; oral BID, DA 23.1 mg/kg or DB 26.8 mg/kg, day 16
  Mean normalized body weight (% of baseline) on study day 16: 98.0 % of baseline
[2]; oral BID, DA 23.1 mg/kg or DB 26.8 mg/kg, day 18
  Mean normalized body weight (% of baseline) on study day 18: 97.9 % of baseline
[2]; oral BID, DA 23.1 mg/kg or DB 26.8 mg/kg, day 21
  Mean normalized body weight (% of baseline) on study day 21: 99.5 % of baseline
[2]; oral BID, DA 23.1 mg/kg or DB 26.8 mg/kg, day 23
  Mean normalized body weight (% of baseline) on study day 23: 100.5 % of baseline
[2]; oral BID, DA 23.1 mg/kg or DB 26.8 mg/kg, day 32
  Mean normalized body weight (% of baseline) on study day 32: 102.8 % of baseline
[2]; oral BID, DA 23.1 mg/kg or DB 26.8 mg/kg, day 34
  Mean normalized body weight (% of baseline) on study day 34: 103.6 % of baseline
[2]; oral BID, DA 23.1 mg/kg or DB 26.8 mg/kg, day 36
  Mean normalized body weight (% of baseline) on study day 36: 104.1 % of baseline
[2]; oral BID, DA 23.1 mg/kg or DB 26.8 mg/kg, day 39
  Mean normalized body weight (% of baseline) on study day 39: 104.7 % of baseline
[2]; oral BID, DA 23.1 mg/kg or DB 26.8 mg/kg, day 41
  Mean normalized body weight (% of baseline) on study day 41: 105.3 % of baseline
[2]; oral BID, DA 23.1 mg/kg or DB 26.8 mg/kg, day 46
  Mean normalized body weight (% of baseline) on study day 46: 106.0 % of baseline
[2]; oral BID, DA 23.1 mg/kg or DB 26.8 mg/kg, day 49
  Mean normalized body weight (% of baseline) on study day 49: 107.8 % of baseline
[2]; oral BID, DA 23.1 mg/kg or DB 26.8 mg/kg, day 51
  Mean normalized body weight (% of baseline) on study day 51: 107.8 % of baseline
[2]; oral BID, DA 23.1 mg/kg or DB 26.8 mg/kg, day 53
  Mean normalized body weight (% of baseline) on study day 53: 107.4 % of baseline
[2]; oral BID, DA 23.1 mg/kg or DB 26.8 mg/kg, day 56
  Mean normalized body weight (% of baseline) on study day 56: 108.4 % of baseline
[4]
  Food intake and weight gain in rodent obesity models: suppressed food intake and inhibited weight gain
[5]; 1 μmol/kg DB
  Nutrient volume tolerance and satiation: decreased nutrient volume tolerance and increased satiation
[5]; intragastric administration
  Gastric motility, nutrient volume tolerance, hunger ratings and satiation: attenuated inter-digestive gastric motility, reduced nutrient volume tolerance, decreased hunger ratings, and increased satiation post meal
